The first assay concerns the target T1, Alpha-1D adrenergic receptor (Homo sapiens, UniProt P25100). Also: in other assays of this panel Not Active means under 50% inhibition at 10 µM.
T1 sequence (P25100 whole entry): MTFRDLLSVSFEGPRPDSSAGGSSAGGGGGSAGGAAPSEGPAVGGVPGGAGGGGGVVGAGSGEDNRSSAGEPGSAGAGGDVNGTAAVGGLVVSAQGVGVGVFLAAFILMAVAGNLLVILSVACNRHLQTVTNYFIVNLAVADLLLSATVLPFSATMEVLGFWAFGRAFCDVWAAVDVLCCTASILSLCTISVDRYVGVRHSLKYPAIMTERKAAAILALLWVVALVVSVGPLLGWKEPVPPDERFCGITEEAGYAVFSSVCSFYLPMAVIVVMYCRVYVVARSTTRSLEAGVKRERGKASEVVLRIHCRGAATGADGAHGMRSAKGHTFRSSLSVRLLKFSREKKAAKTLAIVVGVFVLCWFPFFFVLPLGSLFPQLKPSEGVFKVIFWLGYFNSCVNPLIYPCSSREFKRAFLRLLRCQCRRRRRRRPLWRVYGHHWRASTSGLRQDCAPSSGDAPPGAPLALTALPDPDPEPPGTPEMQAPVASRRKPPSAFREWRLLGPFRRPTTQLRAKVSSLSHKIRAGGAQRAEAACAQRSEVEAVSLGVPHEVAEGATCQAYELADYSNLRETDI
Test: not given
The format is cell membranes, HEK293, Membrane. Conditions: hek293.
Sequence of D(3) dopamine receptor (P35462 whole entry): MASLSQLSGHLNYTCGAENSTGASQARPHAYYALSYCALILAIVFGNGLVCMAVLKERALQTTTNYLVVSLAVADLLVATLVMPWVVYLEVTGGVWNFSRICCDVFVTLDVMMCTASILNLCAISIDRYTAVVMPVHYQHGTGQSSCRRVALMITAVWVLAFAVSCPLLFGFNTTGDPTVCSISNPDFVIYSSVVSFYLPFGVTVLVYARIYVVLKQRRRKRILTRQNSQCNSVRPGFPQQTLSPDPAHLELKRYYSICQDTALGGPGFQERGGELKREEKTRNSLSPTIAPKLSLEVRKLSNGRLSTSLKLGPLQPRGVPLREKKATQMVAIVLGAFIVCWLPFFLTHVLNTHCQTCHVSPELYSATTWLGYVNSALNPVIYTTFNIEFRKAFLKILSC
Sequence of Platelet-activating factor receptor (P25105 whole entry): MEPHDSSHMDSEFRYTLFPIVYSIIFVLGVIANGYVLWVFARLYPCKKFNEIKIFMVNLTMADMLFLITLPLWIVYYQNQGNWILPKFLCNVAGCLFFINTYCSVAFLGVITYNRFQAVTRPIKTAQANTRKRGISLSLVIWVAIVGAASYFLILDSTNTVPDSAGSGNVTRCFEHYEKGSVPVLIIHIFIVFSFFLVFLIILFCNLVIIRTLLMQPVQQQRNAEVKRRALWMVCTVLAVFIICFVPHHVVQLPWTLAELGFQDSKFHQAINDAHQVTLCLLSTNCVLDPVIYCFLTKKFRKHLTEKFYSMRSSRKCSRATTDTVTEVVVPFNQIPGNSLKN
Sequence of Melanocortin receptor 3 (P41968 whole entry): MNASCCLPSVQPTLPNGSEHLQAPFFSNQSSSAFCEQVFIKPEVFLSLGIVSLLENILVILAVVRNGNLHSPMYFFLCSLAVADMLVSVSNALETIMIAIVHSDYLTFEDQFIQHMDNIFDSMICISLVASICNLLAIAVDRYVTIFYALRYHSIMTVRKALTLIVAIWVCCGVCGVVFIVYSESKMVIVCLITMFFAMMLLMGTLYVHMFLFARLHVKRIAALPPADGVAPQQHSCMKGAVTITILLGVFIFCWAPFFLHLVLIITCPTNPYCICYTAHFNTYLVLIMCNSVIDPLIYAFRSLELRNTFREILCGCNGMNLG
Consider `COc1ccc([C@@H]2Sc3ccccc3N(CCN(C)C)C(=O)[C@@H]2OC(C)=O)cc1` [DILTIAZEM], for which the IC50 result is reported as “Not Active”.
Still for that read-out and setting: for `NCC(=O)O` [GLYCINE] the value was “Not Active”; for `O=C1CCc2cc(OCCCCc3nnnn3C3CCCCC3)ccc2N1` [CILOSTAZOL], “Not Active”.

System in a further assay: not listed separately
Put plainly: DRUGMATRIX: Calcium Channel Type L, Phenylalkylamine radioligand binding (ligand: [3H] (-)-Desmethoxyverapamil (D-888)). The class given is cell membranes, Rattus norvegicus, Wistar, Brain, Membrane. To be noted: Not Active = under 50% inhibition at 10 µM.
As for `NCC(=O)O` [GLYCINE], the IC50 entry is “Not Active” and the Ki entry was “Not Active”.
Take `O=C1CCc2cc(OCCCCc3nnnn3C3CCCCC3)ccc2N1` [CILOSTAZOL]: the IC50 result is given as “Not Active” and the Ki result was “Not Active”.

The assay is the same for the next values; noted with them: Not Active = under 50% inhibition at 10 µM; read-out: IC50.
On to `COc1ccc([C@@H]2Sc3ccccc3N(CCN(C)C)C(=O)[C@@H]2OC(C)=O)cc1` [DILTIAZEM], for which the IC50 worked out at 630 nM.

The same assay, now with this note: Not Active = under 50% inhibition at 10 µM; read-out: Ki.
For `COc1ccc([C@@H]2Sc3ccccc3N(CCN(C)C)C(=O)[C@@H]2OC(C)=O)cc1` [DILTIAZEM], the Ki was determined as 612 nM.

The target in a further assay is Prostaglandin G/H synthase 1 (Homo sapiens, UniProt P23219). Put plainly: biochemical. The format is tissue-based, Platelet. Conditions: platelet.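 Also: inhibition of COX-1 enzyme activity, with arachidonic acid supplied as substrate; in other assays of this panel Not Active means under 50% inhibition at 10 µM.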
Sequence of Prostaglandin G/H synthase 1 (P23219 whole entry): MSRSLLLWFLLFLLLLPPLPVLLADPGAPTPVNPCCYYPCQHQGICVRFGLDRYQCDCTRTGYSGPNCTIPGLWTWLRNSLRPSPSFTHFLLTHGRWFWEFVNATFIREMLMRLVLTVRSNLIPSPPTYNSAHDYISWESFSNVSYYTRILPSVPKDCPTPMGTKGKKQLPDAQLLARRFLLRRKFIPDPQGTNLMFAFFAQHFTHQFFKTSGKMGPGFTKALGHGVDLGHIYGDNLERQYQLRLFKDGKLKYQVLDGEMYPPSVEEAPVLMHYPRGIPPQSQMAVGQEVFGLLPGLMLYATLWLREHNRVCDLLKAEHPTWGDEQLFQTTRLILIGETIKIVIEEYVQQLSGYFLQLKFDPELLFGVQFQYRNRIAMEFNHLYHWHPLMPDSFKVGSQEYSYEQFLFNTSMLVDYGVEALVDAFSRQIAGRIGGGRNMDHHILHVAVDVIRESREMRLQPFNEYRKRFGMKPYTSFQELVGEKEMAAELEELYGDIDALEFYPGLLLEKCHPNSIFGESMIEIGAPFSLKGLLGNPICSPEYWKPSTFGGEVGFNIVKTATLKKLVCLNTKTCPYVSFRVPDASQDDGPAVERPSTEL
Regarding `COc1ccc([C@@H]2Sc3ccccc3N(CCN(C)C)C(=O)[C@@H]2OC(C)=O)cc1` [DILTIAZEM], the IC50 entry is listed as “Not Active”.
Take `NCC(=O)O` [GLYCINE]: the IC50 result is on record as “Not Active”.
Regarding `O=C1CCc2cc(OCCCCc3nnnn3C3CCCCC3)ccc2N1` [CILOSTAZOL], the half-inhibitory concentration (IC50) result was “Not Active”.

A further assay addresses D(3) dopamine receptor (Homo sapiens, UniProt P35462). Put plainly: DRUGMATRIX: Dopamine D3 radioligand binding (ligand: [3H] Spiperone). The format is cell membranes, CHO, Membrane. To be noted: cho.
`COc1ccc([C@@H]2Sc3ccccc3N(CCN(C)C)C(=O)[C@@H]2OC(C)=O)cc1` [DILTIAZEM]: the IC50 entry was “Not Active”.
The same measure, in the same setting: under `NCC(=O)O` [GLYCINE] stands “Not Active”; under `O=C1CCc2cc(OCCCCc3nnnn3C3CCCCC3)ccc2N1` [CILOSTAZOL], “Not Active”.

System in a further assay: not listed separately
The experiment in a line: DRUGMATRIX: Glutamate, NMDA, Agonism radioligand binding (ligand: [3H] CGP-39653). The format is cell membranes, Rattus norvegicus, Wistar, Cerebral cortex, Membrane. Conditions: Not Active = under 50% inhibition at 10 µM.
Turning to `COc1ccc([C@@H]2Sc3ccccc3N(CCN(C)C)C(=O)[C@@H]2OC(C)=O)cc1` [DILTIAZEM], the IC50 entry is “Not Active” and the Ki entry is given as “Not Active”.
`NCC(=O)O` [GLYCINE]: the IC50 result is reported as “Not Active” and the Ki entry is given as “Not Active”.
With `O=C1CCc2cc(OCCCCc3nnnn3C3CCCCC3)ccc2N1` [CILOSTAZOL], the IC50 result is listed as “Not Active” and the inhibition constant (Ki) result is recorded as “Not Active”.

System in a further assay: not listed separately
The experiment in a line: DRUGMATRIX: Glutamate, NMDA, Phencyclidine radioligand binding (ligand: [3H] TCP). The class given is cell membranes, Rattus norvegicus, Wistar, Cerebral cortex, Membrane. Conditions: Not Active = under 50% inhibition at 10 µM.
Take `COc1ccc([C@@H]2Sc3ccccc3N(CCN(C)C)C(=O)[C@@H]2OC(C)=O)cc1` [DILTIAZEM]: the IC50 entry was “Not Active” and the Ki entry is “Not Active”.
Take `NCC(=O)O` [GLYCINE]: the IC50 result is given as “Not Active” and the Ki entry is recorded as “Not Active”.
Turning to `O=C1CCc2cc(OCCCCc3nnnn3C3CCCCC3)ccc2N1` [CILOSTAZOL], the concentration for half-maximal inhibition (IC50) result is on record as “Not Active” and the Ki result is on record as “Not Active”.

The target in the next assay is T2, 3-hydroxy-3-methylglutaryl-coenzyme A reductase (Homo sapiens, UniProt P04035).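 Also: enzyme inhibition assay of HMG-CoA reductase using radiolabeled [14C]HMG-CoA as substrate; in other assays of this panel Not Active means under 50% inhibition at 10 µM.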
T2 sequence (P04035 whole entry): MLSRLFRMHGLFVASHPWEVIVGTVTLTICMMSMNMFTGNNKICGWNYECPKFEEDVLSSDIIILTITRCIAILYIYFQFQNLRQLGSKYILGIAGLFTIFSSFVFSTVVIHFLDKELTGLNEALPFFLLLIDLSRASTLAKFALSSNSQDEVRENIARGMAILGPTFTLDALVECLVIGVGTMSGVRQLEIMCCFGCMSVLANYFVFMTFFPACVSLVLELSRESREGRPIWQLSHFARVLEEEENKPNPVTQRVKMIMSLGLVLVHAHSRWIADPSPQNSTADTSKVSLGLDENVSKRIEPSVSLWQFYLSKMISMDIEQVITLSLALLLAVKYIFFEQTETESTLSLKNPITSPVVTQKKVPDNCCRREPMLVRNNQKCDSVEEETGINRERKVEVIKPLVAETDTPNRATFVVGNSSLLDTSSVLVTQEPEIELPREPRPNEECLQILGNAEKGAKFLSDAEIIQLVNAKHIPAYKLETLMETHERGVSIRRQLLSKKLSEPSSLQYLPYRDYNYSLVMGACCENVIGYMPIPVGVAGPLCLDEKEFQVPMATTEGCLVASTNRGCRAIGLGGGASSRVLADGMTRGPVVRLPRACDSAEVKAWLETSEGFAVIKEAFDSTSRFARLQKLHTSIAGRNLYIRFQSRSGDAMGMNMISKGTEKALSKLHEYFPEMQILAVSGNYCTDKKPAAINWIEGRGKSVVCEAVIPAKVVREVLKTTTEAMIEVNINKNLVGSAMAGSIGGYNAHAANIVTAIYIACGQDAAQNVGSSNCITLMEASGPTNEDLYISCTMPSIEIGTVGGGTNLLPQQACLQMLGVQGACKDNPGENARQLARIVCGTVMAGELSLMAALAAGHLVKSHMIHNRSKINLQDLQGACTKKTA
Test: not given
Details: species or system Escherichia coli.
Settings: not given
For the molecule `COc1ccc([C@@H]2Sc3ccccc3N(CCN(C)C)C(=O)[C@@H]2OC(C)=O)cc1` [DILTIAZEM], the IC50 entry was “Not Active”.
On to `NCC(=O)O` [GLYCINE], for which the IC50 entry is listed as “Not Active”.
With `O=C1CCc2cc(OCCCCc3nnnn3C3CCCCC3)ccc2N1` [CILOSTAZOL], the half-inhibitory concentration (IC50) entry is recorded as “Not Active”.

A further assay concerns the target Melanocortin receptor 3 (Homo sapiens, UniProt P41968). Also: in other assays of this panel Not Active means under 50% inhibition at 10 µM.
Test: not given
The format is cell membranes, Membrane. Conditions: hek293.
In the case of `COc1ccc([C@@H]2Sc3ccccc3N(CCN(C)C)C(=O)[C@@H]2OC(C)=O)cc1` [DILTIAZEM], the IC50 entry is “Not Active”.
Consider `NCC(=O)O` [GLYCINE], for which the 50% inhibitory concentration (IC50) entry is “Not Active”.
Same read-out and setting: for `O=C1CCc2cc(OCCCCc3nnnn3C3CCCCC3)ccc2N1` [CILOSTAZOL] the value was “Not Active”.

System in the next assay: not listed separately
The experiment in a line: DRUGMATRIX: Phosphodiesterase PDE4 enzyme inhibition (substrate: [3H]cAMP + cAMP). Conditions: u-937; Not Active = under 50% inhibition at 10 µM.
Consider `COc1ccc([C@@H]2Sc3ccccc3N(CCN(C)C)C(=O)[C@@H]2OC(C)=O)cc1` [DILTIAZEM], for which the IC50 result was “Not Active” and the Ki result was “Not Active”.
For `NCC(=O)O` [GLYCINE], the IC50 entry was “Not Active” and the Ki result was “Not Active”.
Consider `O=C1CCc2cc(OCCCCc3nnnn3C3CCCCC3)ccc2N1` [CILOSTAZOL], for which the IC50 entry is “Not Active” and the Ki result was “Not Active”.

Another assay addresses Platelet-activating factor receptor (Homo sapiens, UniProt P25105). The experiment in a line: biochemical. The class given is tissue-based. Conditions: platelet.
For `COc1ccc([C@@H]2Sc3ccccc3N(CCN(C)C)C(=O)[C@@H]2OC(C)=O)cc1` [DILTIAZEM], the IC50 entry is “Not Active”.
The same measure, in the same setting: under `NCC(=O)O` [GLYCINE] stands “Not Active”; under `O=C1CCc2cc(OCCCCc3nnnn3C3CCCCC3)ccc2N1` [CILOSTAZOL], “Not Active”.

The target in a further assay is T3, Interstitial collagenase (Homo sapiens, UniProt P03956).
T3 sequence (P03956 whole entry): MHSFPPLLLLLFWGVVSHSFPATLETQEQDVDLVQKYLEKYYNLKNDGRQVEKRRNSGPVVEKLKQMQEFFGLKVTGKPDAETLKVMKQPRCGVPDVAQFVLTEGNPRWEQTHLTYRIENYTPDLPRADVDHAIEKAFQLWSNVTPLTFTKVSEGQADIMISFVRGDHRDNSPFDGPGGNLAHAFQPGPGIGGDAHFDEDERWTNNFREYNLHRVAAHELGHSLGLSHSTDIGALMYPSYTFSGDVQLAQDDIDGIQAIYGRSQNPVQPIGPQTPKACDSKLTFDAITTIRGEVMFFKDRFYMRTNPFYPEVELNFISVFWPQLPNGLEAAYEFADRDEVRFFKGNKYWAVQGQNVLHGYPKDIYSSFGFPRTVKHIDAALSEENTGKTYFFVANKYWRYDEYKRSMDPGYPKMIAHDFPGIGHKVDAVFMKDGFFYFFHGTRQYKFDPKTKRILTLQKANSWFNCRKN
Test: not given
The class given is tissue-based, Rheumatoid synovial fibroblasts.
Settings: not given
Regarding `COc1ccc([C@@H]2Sc3ccccc3N(CCN(C)C)C(=O)[C@@H]2OC(C)=O)cc1` [DILTIAZEM], the 50% inhibitory concentration (IC50) entry is given as “Not Active”.
On the same count and under the same terms, under `NCC(=O)O` [GLYCINE] stands “Not Active”.
Same read-out and setting: under `O=C1CCc2cc(OCCCCc3nnnn3C3CCCCC3)ccc2N1` [CILOSTAZOL] stands “Not Active”.

The target in another assay is Mitogen-activated protein kinase 1 (Homo sapiens, UniProt P28482). The experiment in a line: DRUGMATRIX: Protein Serine/Threonine Kinase, ERK2 enzyme inhibition (substrate: Myelin Basic Protein). Details: species or system Escherichia coli. To be noted: Not Active = under 50% inhibition at 10 µM.
Sequence of Mitogen-activated protein kinase 1 (P28482 whole entry): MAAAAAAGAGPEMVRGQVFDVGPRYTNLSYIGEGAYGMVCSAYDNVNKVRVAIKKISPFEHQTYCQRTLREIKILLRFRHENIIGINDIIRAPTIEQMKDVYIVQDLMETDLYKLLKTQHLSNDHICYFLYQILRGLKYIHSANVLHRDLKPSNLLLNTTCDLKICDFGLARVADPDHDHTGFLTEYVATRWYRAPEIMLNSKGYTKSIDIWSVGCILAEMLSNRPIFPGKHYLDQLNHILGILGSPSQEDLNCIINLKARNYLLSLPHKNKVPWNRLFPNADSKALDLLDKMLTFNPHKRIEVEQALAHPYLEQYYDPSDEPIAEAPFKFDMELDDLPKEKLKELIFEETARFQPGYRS
For `COc1ccc([C@@H]2Sc3ccccc3N(CCN(C)C)C(=O)[C@@H]2OC(C)=O)cc1` [DILTIAZEM], the IC50 result was “Not Active”.
Same read-out and setting: under `NCC(=O)O` [GLYCINE] stands “Not Active”; under `O=C1CCc2cc(OCCCCc3nnnn3C3CCCCC3)ccc2N1` [CILOSTAZOL], “Not Active”.

Another assay concerns the target T4, Adenosine receptor A1 (Homo sapiens, UniProt P30542).
T4 sequence (P30542 whole entry): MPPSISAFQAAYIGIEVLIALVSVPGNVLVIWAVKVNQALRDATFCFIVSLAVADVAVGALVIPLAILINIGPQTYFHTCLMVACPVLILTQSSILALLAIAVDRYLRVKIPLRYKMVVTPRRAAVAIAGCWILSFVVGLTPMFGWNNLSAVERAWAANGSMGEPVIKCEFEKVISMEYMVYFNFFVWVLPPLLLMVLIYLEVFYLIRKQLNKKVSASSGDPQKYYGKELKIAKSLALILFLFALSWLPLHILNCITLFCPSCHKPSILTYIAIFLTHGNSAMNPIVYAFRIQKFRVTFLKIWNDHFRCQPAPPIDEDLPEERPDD
Test: not given
The format is cell membranes, CHO, Membrane. To be noted: cho.
Consider `COc1ccc([C@@H]2Sc3ccccc3N(CCN(C)C)C(=O)[C@@H]2OC(C)=O)cc1` [DILTIAZEM], for which the IC50 entry was “Not Active”.
On the same count and under the same terms, for `NCC(=O)O` [GLYCINE] the value was “Not Active”; for `O=C1CCc2cc(OCCCCc3nnnn3C3CCCCC3)ccc2N1` [CILOSTAZOL], “Not Active”.

For orientation: IC50 means the concentration at which inhibition is half-maximal. In general, Ki refers to a measure of affinity in units of concentration, obtained from inhibition or displacement.

For the origin of these results see ChEMBL document CHEMBL1909046, “DrugMatrix in vitro pharmacology data”.
